In US10118943B2, “Compounds and methods for inhibiting cell death” (Ramot at Tel-Aviv University Ltd., priority 2012, dated 2018):
“Also recorded” adds a separate entry of the source. Read-outs that look alike come from different tables or passages of the source. Ends that are not written are not given here.

Assays:
PC12 cells = details: ZnCl2 400 μM, 4 h
Method: FIG. 15: Rat pheochromocytoma cells (PC12) were seeded on Poly-D-Lysine coated 96-well tissue culture dishes in high concentration (30,000 cells/well). On the day of the experiment the cells were treated with ZnCl2 (400 μM) either alone or in combination with different concentration of SKIP for 4 h. After 4 h the cell viability was analyzed by MTS assay. […] All values are from one experiment performed in hexplicate.
Rat pheochromocytoma cell (PC12, ATCC, Bethesda, Md., USA) were grown in 10-cm tissue culture dishes (Corning). The base medium for this cell line was RPMI-1640 Medium (Invitrogen) supplemented with 10% heat-inactivated horse serum, 5% fetal bovine serum and solution containing 100 U/ml penicillin together with […] streptomycin (Biological Industries, Beit Haemek, Israel). The cells were incubated in 95% air; 5% CO2 in a humidified incubator at 37° C. The medium was changed every 2 to 3 days. The cells were subcultured when cell density reached 4×10^6 cells/ml. The cells were split in a ratio of 1:4.
On the day before the experiment cells were to be harvested, re-suspended and seeded on tissue culture dishes. For cell viability measurements, cells were seeded on Poly-D-Lysine coated 96-well tissue culture dishes (Sigma-Aldrich) at a concentration of 3×10^4 cells/well.
The cell viability is measured by colorimetric method that determines the number of viable cells in culture. This method is based on the bio-reduction of the tetrazolium compound [3-(4,5-dimethylthiazol-2-yl)-5-(3-carboxymethoxyphenyl)-2-(4-sulfophenyl)-2H-tetrazolium; MTS] by living cells into a colored formazan product. This reaction is occurring in the presence of an electron coupling reagent (phenazine ethosulfate; PES). The amount of formazan product is measured by ELISA plate reader at 490 nm and is directly proportional to the number of living cells in culture (CellTiter 96® AQueous One Solution Cell Proliferation Assay; Promega, Madison, Wis., USA).

ADNP+/− mice [1] = assay: Object recognition test in ADNP-deficient mice; type: in vivo, mouse; details: intranasal, twice a day, 1 month, ADNP+/− male mice
Excerpt: (§1) All procedures involving animals were approved by the Animal Care and Use Committee of Tel Aviv University and the National Institutes of Health (Bethesda, Md.). ADNP heterozygous mice, a model for cognitive impairments (Vulih-Shultzman et al., 2007, J. Pharmacol. Exp. Ther. 323:438-449), were housed in a 12-h light/12-h dark cycle facility, and free access to rodent chow and water was available.
(§2) SKIP (SEQ ID NO:6) treatment included daily intranasal administrations over a 1 month period to 5-month-old male mice (2 μg/5 μl/mouse/day). For intranasal administration, the peptide was dissolved in a vehicle solution, in which each milliliter included 7.5 mg of NaCl, 1.7 mg of citric acid monohydrate, 3 mg of disodium phosphate dihydrate, and 0.2 mg of benzalkonium chloride solution (50%). SKIP (SEQ ID NO:6) or vehicle solution (DD) was administered to mice hand-held in a semisupine position with nostrils facing the investigator. A pipette tip was used to administer 5 μl/each nostril. The mouse was handheld until the solution was totally absorbed (˜10 s). Nasal SKIP (SEQ ID NO:6) application was performed daily, twice a day, for 1 month (5 days a week). After 1 month, SKIP (SEQ ID NO:6) was applied 2 h before the behavioral tests (described below).
The test includes 2 consecutive days of habituation (five minutes per day) and the experimental day which consists of the three phases. The test was conducted two hours after the daily intranasal SKIP (SEQ ID NO:6). During the first phase (Phase 1, habituation phase), the open field apparatus (arena of 50×50 cm) contained two identical objects (samples) and a mouse was placed in the apparatus facing the wall and allowed to freely explore the objects. At the end of the 5-min session of Phase 1, the mouse was put back into its home cage for 3 hours. […] The time spent sniffing/touching each object was measured. The data was analyzed using the following formula: D1=b−a, when ‘a’ designated the time of exploration of the familiar object and ‘b’ designated the time of exploration of the novel object. […]

ADNP+/− mice [2] = assay: Morris water maze in ADNP-deficient mice; type: in vivo, mouse; details: intranasal, twice a day, 1 month, ADNP+/− male mice
Excerpt: as §1
SKIP (SEQ ID NO:6) treatment included daily intranasal administrations over a 1 month period to 5-month-old male mice (2 μg/5 μl/mouse/day). […]
The apparatus was a pool with a diameter of 140 cm, filled with opaque water (23-24° C.). […] The time taken for an animal to reach the platform (latency) was recorded. The daily improvement (in seconds to reach the hidden platform) for each animal (in comparison to the starting day) was calculated. […] The platform was removed from the maze and the distance traveled and the time spent by the mice in the pool's quarter where the platform used to be, were recorded (for a maximal period of 90 s). Mouse behavior in the quarter that is most distant from the target quarter was also measured. All measurements were recorded as the percentage of the total time spent or total path traveled in the pool. To determine the general mobility of the mice in the pool, the swimming behavior of each animal was monitored and the total path length and swim velocity were calculated. […]

ADNP+/− mice [3] = assay: Elevated plus-maze in ADNP-deficient mice; type: in vivo, mouse; details: intranasal treatment, ADNP+/− male mice, 5 min
Excerpt: as §1
as §2, with “Nasal SKIP (SEQ ID NO:6) application was performed daily, twice a day, for 1 month (5 days a week). After 1 month, SKIP (SEQ ID NO:6) was applied 2 h before the behavioral tests (described below).” left out
The maze consisted of two open arms (50 cm×10 cm) and two closed arms 50 cm×10 cm×40 cm), with arms of each type opposite to each other. […] The data were analyzed using the following formula: D2=(b−a)/(b+a), when ‘a’ designated the time spent in the open arm and ‘b’ designated the time spent in the closed arm.

## SKIP (not fully specified (N-terminus, C-terminus)) [SKIP (SEQ ID NO:6), 4-amino acid peptide Ser-Lys-Ile-Pro]
PC12 cells; peptide 10^−9M
  protection against Zn intoxication (MTS viability vs Zn alone): showed protection
PC12 cells; peptide 10^−15M
  protection against Zn intoxication (MTS viability vs Zn alone): showed protection
ADNP+/− mice [1]
  object recognition, Phase 2 short retention (discrimination index D1): improved short and long term memory
  object recognition, Phase 3 long retention, 24 hours (discrimination index D1): improvement in long term memory for the ADNP-deficient mice, bringing them to the control levels; also recorded: improved short and long term memory
ADNP+/− mice [2]
  water maze first daily test (reference memory), latency to hidden platform: improved learning on the 2nd day; also recorded: improved the memory
  water maze second daily test, 5th day, latency to hidden platform: improvement in the behavior of the ADNP-deficient mice, bringing them to the control levels
ADNP+/− mice [3]
  risky behavior, time spent in open vs closed arms: reduction in the risky behavior; also recorded: improvement in the risky behavior
